Results reported in article PMC6773697, “Antileukemic activity of novel adenosine derivatives” (Scientific Reports, 2019).

Assays:
[1] = tested on: dCK in THP-1 cells; test: Deoxycytidine kinase activity, THP-1; type: cell-based, human; conditions: THP-1, 24 h incubation
Procedure: (§1) Deoxycytidine kinase activity was measured in accordance with the manufacturer’s protocol. The cells, at final concentration were plated at 1 × 10^6 cells per 24-well plates and cultured with the tested compounds for 24 h. Some cells were preincubated with an ATR kinase inhibitor (VE-821) for 1 h at 37 °C before adding the tested compounds. After drug treatment, the cells were washed with PBS and resuspended in an ice-cold cytosol extraction buffer containing 1 mM phenylmethylsulfonyl fluoride (PMSF) and a protease inhibitor cocktail. The cell lysate was centrifuged at 10,000 × g for 30 min at 4 °C. The protein concentration was determined using the Bradford method. The supernatant (cytosolic fraction) was collected and stored at −80 °C. The clarified cytoplasm extracts, dCK standards, and blank control were added to the appropriate microtiter plate wells with a biotin-conjugated polyclonal antibody prepared specifically for dCK. Avidin conjugated to horseradish peroxidase (HRP) was added to each microplate well and incubated. Then, a TMB substrate solution was added to the plate. […] The enzyme-substrate reaction was terminated by addition of a sulfuric acid solution. The color change was measured spectrophotometrically at a wavelength of 450 nm using a microplate reader (BioTek).

[2] = tested on: dCK in HL-60 cells; test: Deoxycytidine kinase activity, HL-60; type: cell-based, human; conditions: HL-60, 24 h incubation
Procedure: as §1

[3] = tested on: dCK in MOLT-4 cells; test: Deoxycytidine kinase activity, MOLT-4; type: cell-based, human; conditions: MOLT-4, 24 h incubation
Procedure: as §1

[4] = tested on: leukemic cells (HL-60, MOLT-4, THP-1); test: XTT cytotoxicity assay, leukemic cells overall; type: cell-based, human; conditions: for cytotoxicity (in words): XTT, leukemic cell lines
Procedure: (§2) The cytotoxic activity test with XTT (sodium 3′-[1-(phenylaminocarbonyl)- 3,4-tetrazolium]-bis (4-methoxy-6-nitro) benzene sulfonic acid hydrate) is a colorimetric method for determining the parameters associated with cell viability. The cytotoxicity in HL-60, THP-1, MOLT-4, and HMEC-1 cells was measured by the XTT assay. XTT is reduced to formazan by the mitochondrial respiratory chain oxidoreductase, which is active only in living cells. The formed crystals of formazan are dissolved directly in the medium. The amount of product is proportional to the number of live cells.
(§3) The IC50 parameter was determined by dividing the mean absorbance values of the drug-treated samples by those of control cells and defined as the drug concentration causing a 50% reduction of cell viability relative to the control. It was calculated using the “Ed50v10(1)” computer application. Cells were plated in 96-well plates at a density of 15 × 10^3 cells in 100 μL culture medium. Drugs were then added at a concentration range of 10 nM–10,000 nM to obtain a final volume of the mixture of 150 μL. Some cells were preincubated with an ATR kinase inhibitor (VE-821) for 1 h at 37 °C before adding the tested compounds. In this case drugs were added at a concentration range of 10 nM–300 nM. For the XTT assay, after 48 h of incubation, the plates were centrifuged at 1,500 rpm for 10 min at 4 °C, the culture medium was removed, and the cells were suspended in 100 mm^3 of HBSS (Hank’s Buffered Salt Solution) containing 140 mM NaCl, 5 mM KCl, 0.8 mM MgCl2, 1.8 mM CaCl2, 1 mM Na2HPO4, 10 mM HEPES (N- (2-hydroxyethyl) -piperazine-N′- (2-ethanesulfonic acid), and 1% glucose at pH 7.4. Then, 50 μL of XTT solution (in PBS) was added to a final concentration of […]. In addition, PMS (phenazine methosulphate) - methyl dibenzo-N-methylpyrazine sulphate (0.383 mg/cm^3) was used, which was combined with XTT solution at a ratio of 1:50. After 4 h of incubation with XTT, absorbance was measured at a wavelength λ = 450 nm and reference wavelength λ = 690 nm with a microplate reader (BioTek, Winooski, VT, USA).

[5] = tested on: THP-1 cells; test: XTT cytotoxicity assay, THP-1; type: cell-based, human; conditions: Homo sapiens, THP-1; XTT, 48 h incubation, none in the picture
Procedure: as §2, §3

[6] = tested on: HL-60 cells; test: XTT cytotoxicity assay, HL-60; type: cell-based; conditions: Homo sapiens, 48 h incubation, none in the picture
Procedure: as §2, §3

[7] = tested on: HMEC-1 cells; test: XTT cytotoxicity assay, HMEC-1 (normal dermal endothelium); type: cell-based; conditions: Homo sapiens, 48 h incubation, none in the picture
Procedure: as §2, §3

[8] = tested on: MOLT-4 cells; test: XTT cytotoxicity assay, MOLT-4; type: cell-based, human; conditions: Homo sapiens, MOLT-4; XTT, 48 h incubation, none in the picture
Procedure: as §2, §3

[9] = tested on: γH2AX in HL-60 cells; test: H2AX (phospho S139) In-Cell ELISA, HL-60; type: cell-based, human; conditions: HL-60, 48 h, versus control cells
Procedure: The level H2AX protein phosphorylated Ser139 was measured in tested leukemia cells by using of In-Cell ELISA, ICE assay kit. The cells were seeded on 96-well plates (100 × 10^3/well) and 48 h later, incubated with the appropriate compounds. In some experimental variants, cells were preincubated for 1 h with VE-821 (10 µM). The cells were fixed by adding a final concentration of 4% paraformaldehyde solution (10 min, room temperature). After 2 h of Block Solution incubation, cells were treated with a highly specific antibody. A rabbit monoclonal antibody specific to H2AX (phospho S139) was used (at 1:100, 2 h incubation). Next Secondary Antibody Solution (at 1:1000) were added to the cells. The measurements were obtained on a fluorescence plate reader at an excitation wavelength of 680 nm and emission at 694 nm. The cells were PBS washed and 100 µL of Janus Green Stain was added to each well of the plate (5 min., room temperature). The data were collected at excitation wavelength of 750 nm and emission at 800 nm channel (Fluoroskan Cary Eclipse). Antibody signal intensity was normalized to the total amount using Janus Green cell-stain.

[10] = tested on: THP-1 cells; test: Comet assay with proteinase K post-treatment (DNA-protein cross-links), THP-1; type: cell-based, human; conditions: THP-1, 24 h
Procedure: (§4) Single cell gel electrophoresis (comet assay) was used to detect alkali labile sites, single and double DNA strand breaks, and cross-links induced by genotoxic agents. After electrophoresis and gel staining with 4,6-diamidino-2-phenylindole (DAPI), the released DNA was visible under a fluorescence microscope as a characteristic comet tail. The cells were plated on 24-well plates (20,000 cells/mL) and treated with CLA, CLA-FMOR, CLA-FPIP, or CLA-FPIR at the indicated concentrations for 2, 24, and 48 h at 37 °C. Some cells were preincubated with an ATR kinase inhibitor (VE-821) for 1 h at 37 °C before adding the tested compounds. Next, cells were collected into Eppendorf tubes and rinsed with PBS. Then, cells were suspended in 0.75% low melting point (LMP) agarose dissolved in PBS (pH 7.4) and placed on microscope slides precoated with 0.5% normal melting point (NMP) agarose. Subsequently, the slides were treated with a cooled lysis buffer (2.5 M NaCl, 100 mM EDTA, 10 mM Tris, 1% Triton X-100, pH 9.0) for 1–24 h at 4 °C. Then, slides were placed in developing buffer (300 mM NaOH, 1 mM EDTA) for 20 min. Electrophoresis was performed in […] (30 mM NaOH, 1 mM EDTA) at 29 V and 30 mA for 20 min. The samples were stained with DAPI ([…]). The slides were stored in a wet chamber at 4 °C and analyzed under a fluorescence microscope. Fifty randomly selected cells from each slide were measured using image analysis (Nikon, Japan) attached to a COHU 4910 video camera, which was equipped with a UV-1 filter block consisting of an excitation filter (359 nm) and a barrier filter (461 nm) connected to the image analysis system Lucia-Comet v. 4.51 (Czech Republic)[41]. In the samples preincubated with VE-821, the level of DNA damage associated with the ATR kinase was determined.
Because cross-links can be undetectable in the alkaline comet assay, a variant of this method including post-treatment with proteinase K (Cat no: P2308) was used. […]

[11] = tested on: caspase-3/7 in HL-60 cells; test: Caspase 3/7 assay, HL-60; type: cell-based, human; conditions: HL-60, 48 h
Procedure: (§5) The activities of caspases-3 and −7 were estimated with CellEvent™ Caspse-3/7 Green Detection Reagent (Thermo Fisher Scientific) according to the manufacturer’s protocol. The cells were seeded on 96-well plates (15 × 10^3/ well) and 24 h later, incubated with the appropriate drugs for 24 h or 48 h. The cells were fixed by adding a final concentration of 4% paraformaldehyde solution (10 min, room temperature). Cells were labeled with CellEvent™Caspase-3/7 Green Detection Reagent (5 µM), followed by Hoechst 33342 (5 µg/ml) for 15 minutes in complete medium3. Caspase-3/7 Green Detection Reagent was diluted into PBS with 5% FBS to avoid fluorescence background. After activation of caspase-3/7 in apoptotic cells, the DEVD peptide was cleaved, enabling the dye to bind DNA, which produced a bright, fluorogenic response with absorption/emission maxima of 502/530 nm according with manufacture protocol. Fluorescence intensity was measured using a Fluoroskan Ascent FL plate reader (Labsystem, Sweden). Cysteine protease activity was expressed as a ratio of fluorescence of the drug-treated samples to the corresponding untreated controls (taken as 100%). In some experimental variants, cells were preincubated for 1 h with VE-821 (10 µM) or Z-FA-FMK (caspas-3 inhibitor, 0.5 µM) to confirm that the fluorescence observed in both control and drug-treated cells was due to the presence of caspase-3/7 in samples. The caspase 3/7 signal was normalized to the Hoechst 33342 staining intensity to account for differences in cell seeding density (description in: Intracellular calcium assay section).

[12] = tested on: HL-60 cells; test: Comet assay with proteinase K post-treatment (DNA-protein cross-links), HL-60; type: cell-based, human; conditions: HL-60, starting at 2 h of incubation
Procedure: as §4
Because cross-links can be undetectable in the alkaline comet assay, a variant of this method including post-treatment with proteinase K (Cat no: P2308) was used. Proteinase K digests peptide bonds, releasing the cross-linked DNA […] the DNA-protein complexes without altering the structure of the DNA-DNA complexes to distinguish them. After lysis, the slides were washed three times in TE buffer (10 mM Tris, pH 10, 1 mM EDTA). The cells were treated with aliquots of proteinase K (60 µL per slide; 1 mg/mL TE buffer) for 1 h at 37 °C in a wet chamber. Further steps of the comet assay were performed as described above.

[13] = tested on: caspase-3/7 in THP-1 cells; test: Caspase 3/7 assay, THP-1; type: cell-based, human; conditions: THP-1, 48 h
Procedure: as §5, with “After activation of caspase-3/7 in apoptotic cells, the DEVD peptide was cleaved, enabling the dye to bind DNA, which produced a bright, fluorogenic response with absorption/emission maxima of 502/530 nm according with manufacture protocol.” left out, “The caspase 3/7 signal was normalized to the Hoechst 33342 staining intensity to account for differences in cell seeding density (description in: Intracellular calcium assay section).” left out

[14] = tested on: caspase-3/7 in MOLT-4 cells; test: Caspase 3/7 assay, MOLT-4; type: cell-based, human; conditions: MOLT-4, 48 h
Procedure: as §5, with “After activation of caspase-3/7 in apoptotic cells, the DEVD peptide was cleaved, enabling the dye to bind DNA, which produced a bright, fluorogenic response with absorption/emission maxima of 502/530 nm according with manufacture protocol.” left out, “The caspase 3/7 signal was normalized to the Hoechst 33342 staining intensity to account for differences in cell seeding density (description in: Intracellular calcium assay section).” left out

For `CS(=O)(=O)c1ccc(-c2cnc(N)c(C(=O)Nc3ccccc3)n2)cc1` [C+VE-821, reference compound], the dCK activity [1] was “decreased dCK activity”, the dCK activity [2] was “decreased dCK activity” and the dCK activity [3] was “decreased dCK activity”. For the same compound, the “effect of ATR inhibitor on cytotoxicity of CLA and derivatives” value ([4]; 10 μM VE-821 preincubation, XTT 48 h) was “reduces the cytotoxicity of all tested compounds”.

`Nc1nc(Cl)nc2c1ncn2[C@H]1C[C@H](O)[C@@H](CO)O1` [CLA, cladribine, reference compound] showed an IC50 [5] of 56 nM, an IC50 [6] of 246 nM and an IC50 [7] of 126 nM. For the same compound, the IC50 [8] was 103 nM and the “increase in γH2AX level” value [9] was ~ 2.4 fold.

In the case of `CN(C)C=Nc1nc(Cl)nc2c1ncn2[C@H]1C[C@H](O)[C@@H](CO)O1` [CLA-FDMF, [6-deamino-6-(N′,N′-dimethyl formamidine)] cladribine], the IC50 [5] is reported as 220 nM, the IC50 [6] is reported as 184 nM and the “cytotoxicity (in words)” value [4] is reported as “low cytotoxicity”. The IC50 [7] was 412 nM and the IC50 [8] was 220 nM.

In the case of `OC[C@H]1O[C@@H](n2cnc3c(N=CN4CCCCCC4)nc(Cl)nc32)C[C@@H]1O` [CLA-FHEX], the IC50 [5] is reported as 172 nM, the IC50 [6] is reported as 647 nM and the “cytotoxicity (in words)” value [4] is reported as “low cytotoxicity”. For the same compound, the IC50 [7] was 1080 nM and the IC50 [8] was 348 nM.

For `CN1CCN(C=Nc2nc(Cl)nc3c2ncn3[C@H]2C[C@H](O)[C@@H](CO)O2)CC1` [CLA-FPAZ], the IC50 [5] was 168 nM, the IC50 [6] was 190 nM and the “cytotoxicity (in words)” value [4] was “low cytotoxicity”. It also gave an IC50 [7] of 710 nM and an IC50 [8] of 353 nM.

In the case of `OC[C@H]1O[C@@H](n2cnc3c(N=CN4CCCCC4)nc(Cl)nc32)C[C@@H]1O` [CLA-FPIP, [6-deamino-6-(N′, N′-1′, 5′-pentamethylene formamidine)] cladribine], the IC50 [5] is reported as 69 nM, the “DNA damage in the tail after proteinase K” value [10] is reported as “increased” and the caspase-3/7 level [11] is reported as “highest changes”. The IC50 [6] was 133 nM, the “cytotoxicity (in words)” value [4] was “high cytotoxic activity” and the IC50 [7] was 435 nM. For the same compound, the “DNA-protein cross-links after proteinase K” value [12] was “increased the level of cross-links” and the IC50 [8] was 110 nM.

For `CC(NC(=O)[C@H](Cc1ccccc1)NC(=O)OCc1ccccc1)C(=O)CF` (some centres unmarked) [Z-FA-FMK, reference compound], the caspase-3/7 level [11] was “totally prevented caspase activation”, the caspase-3/7 level [13] was “totally prevented caspase activation” and the caspase-3/7 level [14] was “totally prevented caspase activation”.
